Read-outs that look alike come from different tables or passages of the source.
Biological target: human GPR52 (Homo sapiens, UniProt Q9Y2T5)
Experiment: GPR52 Agonist Functional cAMP Assay;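 note: HEKf cells transduced with GPR52 BacMam for 24 h, 2000 per well, exposed to compounds 30 min at 37° C with 0.5 mM IBMX, cAMP read by HTRF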
Conditions: for EC50: pEC50 average, HEKf cells infected with human GPR52 BacMam virus, cAMP HTRF, 30 min at 37° C.
[1] = maximal response normalised to DMSO (0%) and maximal compound 7m (J. Med. Chem., 2014, 57, 5226) response (100%)

human GPR52, sequence (Q9Y2T5 whole entry): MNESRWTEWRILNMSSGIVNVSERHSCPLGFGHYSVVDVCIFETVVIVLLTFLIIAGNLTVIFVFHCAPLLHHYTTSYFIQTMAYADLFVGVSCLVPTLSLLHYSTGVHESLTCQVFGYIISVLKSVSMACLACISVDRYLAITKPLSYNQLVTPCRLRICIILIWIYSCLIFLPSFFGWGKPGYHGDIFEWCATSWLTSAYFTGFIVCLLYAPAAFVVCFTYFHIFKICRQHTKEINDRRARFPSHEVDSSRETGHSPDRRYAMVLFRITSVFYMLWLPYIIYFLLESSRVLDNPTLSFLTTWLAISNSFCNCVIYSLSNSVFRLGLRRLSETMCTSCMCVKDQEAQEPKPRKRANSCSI
Description: Following BacMam infection, cells were pelleted by centrifugation (335 g, 5 min), resuspended in cell freezing medium (Sigma) and frozen at −150° C. until required. On experiment day, 25 nL GPR52 compound dilutions, prepared in DMSO, were stamped onto proxiplates (PerkinElmer) by a LabCyte ECHO acoustic dispenser. Frozen cells were thawed and resuspended in assay stimulation buffer (Cisbio) containing 0.5 mM 3-iso-butyl-1-methylxanthine (IBMX, Sigma) to achieve a density of 2000 cells per well. 10 μl cells were added to assay plates using a Multidrop Combi Reagent Dispenser (ThermoFisher) before centrifugation (335 g, 1 min). Cells were incubated with compounds at 37° C. for 30 min prior to addition of cAMP detection reagents (HiRange cAMP kit, Cisbio) which were prepared according to the manufacturer's instructions. Plates were shaken for 1 h at room temperature before reading on a PHERAstar FS plate reader (BMG Labtech) using standard HTRF settings.

Row | Compound | Emax [1] [%] | EC50 [nM] | Emax [%]
1 | Cc1nn(-c2ccnc(Cc3cc(F)cc(Cl)c3)c2)c2c1C(=O)NCC2 [Example 79, 1-(2-(3-chloro-5-fluorobenzyl)pyridin-4-yl)-3-methyl-1,5,6,7-tetrahydro-4H-pyrazolo[4,3-c]pyridin-4-one] | 99 | 12.6 | 
2 | Cc1nn(-c2ccnc(Cc3ccc(F)c(Cl)c3)c2)c2c1C(=O)NCC2 [Example 80, 1-(2-(3-chloro-4-fluorobenzyl)pyridin-4-yl)-3-methyl-1,5,6,7-tetrahydro-4H-pyrazolo[4,3-c]pyridin-4-one] | 97 | 10 | 
3 | Cc1nn(-c2ccnc(Cc3cc(F)c(F)c(Cl)c3)c2)c2c1C(=O)NCC2 [Example 84, 1-(2-(3-chloro-4,5-difluorobenzyl)pyridin-4-yl)-3-methyl-1,5,6,7-tetrahydro-4H-pyrazolo[4,3-c]pyridin-4-one] |  | 2.51 | 95
4 | Cc1nn(-c2ccnc(Cc3cc(F)cc(C#N)c3)c2)c2c1C(=O)NCC2 [Example 85, 3-fluoro-5-((4-(3-methyl-4-oxo-4,5,6,7-tetrahydro-1H-pyrazolo[4,3-c]pyridin-1-yl)pyridin-2-yl)methyl)benzonitrile] | 96 | 63.1 | 
5 | Cc1nn(-c2ccnc(Cc3cc(F)c(F)c(C(F)(F)F)c3)c2)c2c1C(=O)NCC2 [Example 86, 1-(2-(3,4-difluoro-5-(trifluoromethyl)benzyl)pyridin-4-yl)-3-methyl-1,5,6,7-tetrahydro-4H-pyrazolo[4,3-c]pyridin-4-one] | 102 | 3.16 | 
6 | Cc1nn(-c2ccnc(Cc3cc(F)c(Cl)c(C(F)(F)F)c3)c2)c2c1C(=O)NCC2 [Example 87, 1-(2-(4-chloro-3-fluoro-5-(trifluoromethyl)benzyl)pyridin-4-yl)-3-methyl-1,5,6,7-tetrahydro-4H-pyrazolo[4,3-c]pyridin-4-one] | 95 | 6.31 | 
7 | Cc1nn(-c2ccnc(Cc3cc(F)c(Cl)c(F)c3)c2)c2c1C(=O)NCC2 [Example 90, 1-(2-(4-chloro-3,5-difluorobenzyl)pyridin-4-yl)-3-methyl-1,5,6,7-tetrahydro-4H-pyrazolo[4,3-c]pyridin-4-one] | 87 | 20 | 

The next lines start with results.

Row | Emax [1] [%] | EC50 [nM] | Compound | Emax [%]
8 | 94 | 20 | Cc1nn(-c2ccnc(Cc3cccc(C(F)(F)F)c3)c2)c2c1C(=O)NCC2 [Example 78, 3-methyl-1-(2-(3-(trifluoromethyl)benzyl)pyridin-4-yl)-1,5,6,7-tetrahydro-4H-pyrazolo[4,3-c]pyridin-4-one] | 
9 | 70 | 10 | Cc1nn(-c2ccnc(Cc3ccc(OC(F)F)c(F)c3)c2)c2c1C(=O)NCC2 [Example 81, 1-(2-(4-(difluoromethoxy)-3-fluorobenzyl)pyridin-4-yl)-3-methyl-1,5,6,7-tetrahydro-4H-pyrazolo[4,3-c]pyridin-4-one] | 
10 | 93 | 25.1 | Cc1cc(Cc2ccnc(-n3nc(C)c4c3CCNC4=O)c2)cnc1F [Example 83, 1-(4-((6-fluoro-5-methylpyridin-3-yl)methyl)pyridin-2-yl)-3-methyl-1,5,6,7-tetrahydro-4H-pyrazolo[4,3-c]pyridin-4-one] | 
11 | 100 | 5.01 | Cc1nn(-c2ccnc(Cc3cc(Cl)c(F)c(C(F)(F)F)c3)c2)c2c1C(=O)NCC2 [Example 88, 1-(2-(3-chloro-4-fluoro-5-(trifluoromethyl)benzyl)pyridin-4-yl)-3-methyl-1,5,6,7-tetrahydro-4H-pyrazolo[4,3-c]pyridin-4-one] | 
12 | 74 | 631 | COc1ccc(Cc2cc(-n3nc(C)c4c3CCNC4=O)ccn2)cn1 [Example 92, 1-(2-((6-methoxypyridin-3-yl)methyl)pyridin-4-yl)-3-methyl-1,5,6,7-tetrahydro-4H-pyrazolo[4,3-c]pyridin-4-one] | 
13 | 83 | 100 | COc1ncc(Cc2cc(-n3nc(C)c4c3CCNC4=O)ccn2)cc1F [Example 93, 1-(2-((5-fluoro-6-methoxypyridin-3-yl)methyl)pyridin-4-yl)-3-methyl-1,5,6,7-tetrahydro-4H-pyrazolo[4,3-c]pyridin-4-one] | 
